Legend:
Type in all cases: in vivo
Culex pipiens pallens [1] = assay: Knockdown spray test on adult Culex pipiens pallens (Test Example 4); details: topical, 0.25 h, active ingredient 0.1% w/v, 0.5 ml sprayed, within 15 minutes, read-out: knockdown rate of the test insects within 15 minutes
Summary of the method: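 Knockdown counts were taken 2, 5 and 15 min after spraying and expressed as percent of the 10 adults tested. For the spray, 0.5 ml of solution was applied by spray gun (0.4 kg/cm^2) from 30 cm above a gauze-covered cup in a test chamber; the cup was taken out right after spraying.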

Culex pipiens pallens [2] = assay: Larvicidal test on Culex pipiens pallens, eight days (Test Example 7); details: 192 h; last-instar larvae of Culex pipiens pallens; 3.5 ppm in water; eight days later; read-out: death rate
Summary of the method: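 Twenty last-instar larvae placed in 100 ml ion-exchanged water containing test drug at 3.5 ppm active ingredient. Mortality scored after eight days; death rate = dead/tested × 100.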

Culex pipiens pallens [3] = assay: Larvicidal test on Culex pipiens pallens, one day (Test Example 6); details: 24 h; last-instar larvae of Culex pipiens pallens; 3.5 ppm in water; one day later; read-out: death rate
Method: Each of the formulations of Compounds of Present Invention (39), (63), (71), (72), (92), (93), (95), (106), (150), (171), (170), (181), (182), (183), (187), (188), (189), (190), (191), (192), (200), (201), (201), (234), (246), (290) and (299) obtained in Formulation Example 15 was diluted with water, so as to have a concentration of the active ingredient of 500 ppm, to prepare a test drug solution.
20 last-instar larvae of Culex pipiens pallens were released into a liquid to which 0.7 ml of the above test drug solution was added to 100 ml of ion-exchanged water (a concentration of the active ingredient of 3.5 ppm). One day later, the life and death of the Culex pipiens pallens was examined, and the death rate was calculated. The death rate was calculated by the following equation.
Death rate (%)=(Number of dead insects/Number of tested insects)×100

Plutella xylostella = assay: Foliar spray test on Plutella xylostella on cabbage (Test Example 10); details: 120 h, third instar larvae of Plutella xylostella on cabbage, 500 ppm spray 20 ml/cup, after five days, read-out: controlling value
Summary of the method: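 Cabbage at the third–fourth true-leaf stage sprayed with test solution at 20 ml/cup, dried, then infested with 10 third-instar larvae. Insects counted after five days; controlling value (%) calculated from treated and non-treated counts before treatment and at observation.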

Spodoptera litura = assay: Foliar spray test on Spodoptera litura on cabbage (Test Example 11); details: 96 h, fourth instar larvae of Spodoptera litura on cabbage, 500 ppm spray 20 ml/cup, after 4 days, read-out: controlling value
Method: On the other hand, cabbage was planted in a polyethylene cup, and grown until the third-fourth true leaf was spread. The test spray solution was sprayed to the cabbage at a ratio of 20 ml/cup. After the drug solution sprayed orn the cabbage was dried, 10 fourth instar larvae of Spodoptera litura were allowed to parasitize the cabbage. After 4 days, the number of surviving Spodoptera litura on the cabbage leaves was examined, and the controlling value was calculated according to the following equation. Controlling value (%)={1−(Cb×Tai)/([…])}×100 In the equation, the symbols represent as follows. Cb: the number of insects in a non-treated section before treatment Cai: the number of insects in a non-treated section on observation Tb: the number of insects in a treated section before treatment Tai: the number of insects in a treated section on observation

Blattella germanica [4] = assay: Knockdown spray test on Blattella germanica, 0.1% w/v oil formulation (Test Example 2); details: topical, 0.25 h, active ingredient 0.1% w/v, 1.5 ml sprayed, within 15 minutes, read-out: knockdown rate of the test insects within 15 minutes
Summary of the method: (§1)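 Ten German cockroaches (5 males, 5 females) in a mesh-bottomed, butter-walled container were sprayed with 1.5 ml test solution from 60 cm at 0.42 kg/cm^2 inside a chamber.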

Blattella germanica [5] = assay: Knockdown spray test on Blattella germanica, 2.0% w/v oil formulation (Test Example 1); details: topical, 0.25 h, active ingredient 2.0% w/v, 1.5 ml sprayed, within 15 minutes, read-out: knockdown rate of the test insects within 15 minutes
Summary of the method: as §1

Musca domestica [6] = assay: Knockdown spray test on adult Musca domestica (Test Example 3); details: topical, 0.25 h, active ingredient 2.0% w/v, 0.5 ml sprayed, within 15 minutes, read-out: knockdown rate of the test insects within 15 minutes
Summary of the method: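 Ten adult house flies (5 male, 5 female) in a gauze-covered cup sprayed with 0.5 ml test solution from 30 cm at 0.9 kg/cm^2 inside a chamber, then removed. Knocked-down flies counted at 2, 5 and 15 min and expressed as % of insects tested.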

Musca domestica [7] = assay: Filter paper/sucrose bait death rate test on Musca domestica (Test Example 5); details: female imagoes of Musca domestica, 0.7 ml on filter paper, after 24 hours
Summary of the method: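 Ten female imagoes were confined in a sealed cup over a filter paper treated with 0.7 ml of test solution and 30 mg sucrose bait. Mortality was scored at 24 h and expressed as percent of tested insects killed.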

Row | Compound | pest or weed control at 0.1 % strength (Culex pipiens pallens [1]) [%] | pest or weed control at 3.5 ppm (Culex pipiens pallens [2]) [%] | pest or weed control at 3.5 ppm (Culex pipiens pallens [3]) [%] | pest or weed control at 500 ppm (Plutella xylostella) [%] | pest or weed control at 500 ppm (Spodoptera litura) [%] | pest or weed control at 0.1 % strength (Blattella germanica [4]) [%] | pest or weed control at 2 % strength (Blattella germanica [5]) [%] | pest or weed control at 2 % strength (Musca domestica [6]) [%] | pest or weed control at 500 ppm (Musca domestica [7]) [%]
1 | O=C(NCC1CCOCC1)c1cc(COc2ccc(Br)cc2)on1 [(187), N-(tetrahydropyran-4-ylmethyl)-5-(4-bromophenoxymethyl)isoxazole-3-carboxamide] | ≥ 80 | ≥ 90 | ≥ 90 | – | – | – | – | – | –
2 | O=C(NCC1CCOCC1)c1cc(COc2cccc(OC(F)(F)F)c2)on1 [(201), N-(tetrahydropyran-4-ylmethyl)-5-(3-trifluoromethoxyphenoxymethyl)isoxazole-3-carboxamide] | ≥ 80 | ≥ 90 | ≥ 90 | ≥ 90 | ≥ 80 | – | – | – | –
3 | O=C(NCC1CCOCC1)c1cc(COc2ccc(C(F)(F)F)cc2)on1 [(189), N-(tetrahydropyran-4-ylmethyl)-5-(4-trifluoromethylphenoxymethyl)isoxazole-3-carboxamide] | ≥ 80 | ≥ 90 | ≥ 90 | – | – | – | – | – | –
4 | O=C(NCC1CCOCC1)c1cc(COCc2ccc(Br)cc2)on1 [(92), N-(tetrahydropyran-4-ylmethyl)-5-(4-bromobenzyloxymethyl)isoxazole-3-carboxamide] | ≥ 80 | ≥ 90 | ≥ 90 | ≥ 90 | – | ≥ 80 | – | – | –
5 | O=C(NCC1CCOC1)c1cc(COCc2ccc3ccccc3c2)on1 (stereo not drawn) [(20), N-(tetrahydrofuran-3-ylmethyl)-5-(2-naphthylmethoxymethyl)isoxazole-3-carboxamide] | ≥ 80 | ≥ 90 | – | – | ≥ 80 | – | ≥ 80 | ≥ 80 | –
6 | O=C(NCC1CCOCC1)c1cc(COc2ccc(Cl)cc2)on1 [(181), N-(tetrahydropyran-4-ylmethyl)-5-[(4-chlorophenoxy)methyl]isoxazole-3-carboxamide] | ≥ 80 | ≥ 90 | ≥ 90 | – | – | – | – | – | –
7 | O=C(NCC1CCOCC1)c1cc(COCc2ccc(Cl)cc2)on1 [(71), N-(tetrahydropyran-4-ylmethyl)-5-(4-chlorobenzyloxymethyl)isoxazole-3-carboxamide] | ≥ 80 | – | ≥ 90 | ≥ 90 | – | – | – | – | –
8 | O=C(NCC1CCOC1)c1cc(COc2cccc(OC(F)(F)F)c2)on1 (stereo not drawn) [(200), N-(tetrahydrofuran-3-ylmethyl)-5-(3-trifluoromethoxyphenoxymethyl)isoxazole-3-carboxamide] | ≥ 80 | ≥ 90 | ≥ 90 | – | ≥ 80 | ≥ 80 | – | – | ≥ 90
9 | O=C(NCC1CCOC1)c1cc(COc2ccc(Cl)c(Cl)c2)on1 (stereo not drawn) [(182)] | ≥ 80 | ≥ 90 | ≥ 90 | – | – | – | – | – | –
10 | O=C(NCC1CCOC1)c1cc(COCc2ccc(OC(F)(F)F)cc2)on1 (stereo not drawn) [(93), N-(tetrahydrofuran-3-ylmethyl)-5-(4-trifluoromethoxybenzyloxymethyl)isoxazole-3-carboxamide] | ≥ 80 | ≥ 90 | ≥ 90 | ≥ 90 | – | ≥ 80 | – | – | –
11 | O=C(NCC1CCOC1)c1cc(Cc2ccc3c(c2)OCO3)on1 (stereo not drawn) [(299), N-(tetrahydrofuran-3-ylmethyl)-5-(1,3-benzodioxolan-5-ylmethyl)isoxazole-3-carboxamide] | ≥ 80 | – | ≥ 90 | – | – | – | – | – | ≥ 90
12 | O=C(NCC1CCOC1)c1cc(COCc2ccc(Cl)c(Cl)c2)on1 (stereo not drawn) [(72), N-(tetrahydrofuran-3-ylmethyl)-5-(3,4-dichlorobenzyloxymethyl)isoxazole-3-carboxamide] | ≥ 80 | – | ≥ 90 | ≥ 90 | ≥ 80 | ≥ 80 | – | – | ≥ 90
13 | O=C(NCC1CCOC1)c1cc(CCCc2ccc(Cl)c(Cl)c2)on1 (stereo not drawn) [(246), N-(tetrahydrofuran-3-ylmethyl)-5-[3-(3,4-dichlorophenyl)propyl]isoxazole-3-carboxamide] | ≥ 80 | – | ≥ 90 | ≥ 90 | ≥ 80 | ≥ 80 | – | – | ≥ 90
14 | O=C(NCC1CCOC1)c1cc(COCc2ccc(SC(F)(F)F)cc2)on1 (stereo not drawn) [(95), N-(tetrahydrofuran-3-ylmethyl)-5-(4-trifluoromethylthiobenzyloxymethyl)isoxazole-3-carboxamide] | ≥ 80 | ≥ 90 | ≥ 90 | – | – | – | – | – | –
15 | O=C(NCC1CCOC1)c1cc(COc2ccc(SC(F)(F)F)cc2)on1 (stereo not drawn) [(192), N-(tetrahydrofuran-3-ylmethyl)-5-(4-trifluoromethylthiophenoxymethyl)isoxazole-3-carboxamide] | ≥ 80 | ≥ 90 | ≥ 90 | – | – | – | – | – | –
16 | Cc1c(C(=O)NCC2CCOC2)noc1CCCc1ccc2ccccc2c1 (stereo not drawn) [(290), N-(tetrahydrofuran-3-ylmethyl)-4-methyl-5-[3-(2-naphthyl)propyl]isoxazole-3-carboxamide] | ≥ 80 | – | ≥ 90 | ≥ 90 | ≥ 80 | ≥ 80 | ≥ 80 | ≥ 80 | ≥ 90
17 | O=C(NCC1CCOC1)c1cc(COc2ccc(C(F)(F)F)cc2)on1 (stereo not drawn) [(188), N-(tetrahydrofuran-3-ylmethyl)-5-(4-trifluorophenoxymethyl) isoxazole-3-carboxamide] | ≥ 80 | ≥ 90 | ≥ 90 | ≥ 90 | – | – | – | – | –
18 | O=C(NCC1CCOCC1)c1cc(COc2ccc(OC(F)(F)F)cc2)on1 [(191), N-(tetrahydropyran-4-ylmethyl)-5-(4-trifluoromethoxyphenoxymethyl)isoxazole-3-carboxamide] | ≥ 80 | ≥ 90 | ≥ 90 | ≥ 90 | ≥ 80 | – | – | – | –
19 | O=C(NCC1CCOC1)c1cc(COCc2ccc(C(F)(F)F)cc2)on1 (stereo not drawn) [(63), N-(tetrahydrofuran-3-ylmethyl)-5-(4-trifluoromethylbenzyloxymethyl)isoxazole-3-carboxamide] | ≥ 80 | ≥ 90 | ≥ 90 | – | – | – | ≥ 80 | ≥ 80 | –
